Experimental data taken from patent publication US10975083B2, “Blood-brain barrier-penetrant dopamine-β-hydroxylase inhibitors” (BIAL—PORTELA & Cᵃ, S.A., priority 2016, dated 2021).
Read-outs that look alike come from different tables or passages of the source.

How the values were obtained:
in vitro = conditions: dog, MDCK, pH 7.4
DβH = molecular target: T1, DβH (Homo sapiens, UniProt P09172); test: DβH inhibition cell assay (SK-N-SH cellular homogenates, tyramine to octopamine); type: biochemical; conditions: for remaining activity at 0.1 µM: read-out: DβH activity in % of Ctrl (0.1 μM); for remaining activity at 1 µM: read-out: DβH activity in % of Ctrl (1 μM); for remaining activity at 10 µM: inhibitor 10 μM, read-out: DβH activity in % of Ctrl (10 μM)
T1 construct: reaction mixture (total volume 500 μl) contained: cellular homogenate (75 μg total protein); host or cells: SK-N-SH cell homogenate
T1 sequence (P09172 1-617): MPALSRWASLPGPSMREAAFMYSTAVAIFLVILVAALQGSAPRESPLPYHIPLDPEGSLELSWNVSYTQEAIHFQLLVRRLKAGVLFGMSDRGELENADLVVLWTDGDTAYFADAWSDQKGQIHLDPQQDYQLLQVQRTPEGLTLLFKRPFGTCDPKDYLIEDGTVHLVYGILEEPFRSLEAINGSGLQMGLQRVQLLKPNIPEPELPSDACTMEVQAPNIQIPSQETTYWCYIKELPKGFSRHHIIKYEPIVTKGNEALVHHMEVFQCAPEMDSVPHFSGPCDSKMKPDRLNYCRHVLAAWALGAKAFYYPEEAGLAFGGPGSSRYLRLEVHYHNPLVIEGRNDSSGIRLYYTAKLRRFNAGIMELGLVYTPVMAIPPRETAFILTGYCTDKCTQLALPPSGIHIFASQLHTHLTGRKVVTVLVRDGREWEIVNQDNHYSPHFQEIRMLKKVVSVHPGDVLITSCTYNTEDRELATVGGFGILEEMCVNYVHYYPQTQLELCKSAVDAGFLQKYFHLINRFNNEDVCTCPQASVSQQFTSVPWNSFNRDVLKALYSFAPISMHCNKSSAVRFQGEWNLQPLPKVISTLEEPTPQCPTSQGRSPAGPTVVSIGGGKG

[1] = inhibitor 0.1 μM, SK-N-SH cell homogenate
[2] = inhibitor 1 μM, SK-N-SH cell homogenate

Compound `NC(=S)N1CC[C@@H](c2cc(F)cc(F)c2)C1` [Example 25, (S)-3-(3,5-difluorophenyl)pyrrolidine-1-carbothioamide] has a Papp A→B at 30 min, 50 μM (in vitro) of 100 ×10⁻⁶ cm/s, a remaining activity at 0.1 µM (DβH; [1]) of 46.1% and a remaining activity at 1 µM (DβH; [2]) of 6.7%.
With `NC(=S)N1CCC(c2ccco2)C1` (stereo not drawn) [Example 17, 3-(furan-2-yl)pyrrolidine-1-carbothioamide] the Papp A→B at 30 min, 50 μM (in vitro) was 79.4 ×10⁻⁶ cm/s and the remaining activity at 1 µM (DβH; [2]) was 56.8%.
`Fc1ccc(C2Cc3c[nH]c(=S)n3C2)c(F)c1` (stereo not drawn) [Example 51, 6-(2,4-Difluorophenyl)-6,7-dihydro-2H-pyrrolo[1,2-c]imidazole-3(5H)-thione] gave a Papp A→B at 30 min, 50 μM (in vitro) of 100 ×10⁻⁶ cm/s and a remaining activity at 1 µM (DβH) of 54.4%.
In the case of `Fc1cc(F)cc([C@H]2Cc3c[nH]c(=S)n3C2)c1` [Example 58, (R)-6-(3,5-difluorophenyl)-6,7-dihydro-2H-pyrrolo[1,2-c]imidazole-3(5H)-thione], the Papp A→B at 30 min, 50 μM (in vitro) is reported as 126 ×10⁻⁶ cm/s, the remaining activity at 0.1 µM (DβH) is reported as 106% and the remaining activity at 1 µM (DβH) is reported as 59.8%.
`Fc1ccc(F)c([C@@]23C[C@@H]2c2c[nH]c(=S)n2C3)c1` [Example 57, (5aR,6aS)-5a-(2,5-difluorophenyl)-5,5a,6,6a-tetrahydrocyclopropa[3,4]pyrrolo[1,2-c]imidazole-3(2H)-thione] gave a Papp A→B at 30 min, 50 μM (in vitro) of 63.1 ×10⁻⁶ cm/s, a remaining activity at 0.1 µM (DβH; [1]) of 97.9% and a remaining activity at 1 µM (DβH; [2]) of 58.6%. For the same compound, the remaining activity at 10 µM (DβH; SK-N-SH cell homogenate) was 9.2%.
`Fc1cc(F)cc([C@]23C[C@H]2c2c[nH]c(=S)n2C3)c1` [Example 54, (5aS,6aR)-5a-(3,5-difluorophenyl)-5,5a,6,6a-tetrahydrocyclopropa[3,4]pyrrolo[1,2-c]imidazole-3(2H)-thione] showed a Papp A→B at 30 min, 50 μM (in vitro) of 25.1 ×10⁻⁶ cm/s, a remaining activity at 0.1 µM (DβH; [1]) of 44.3% and a remaining activity at 1 µM (DβH; [2]) of 8.2%.
Compound `Fc1cc(F)cc(C2Cc3c[nH]c(=S)n3C2)c1` (stereo not drawn) [Example 50, 6-(3,5-difluorophenyl)-6,7-dihydro-2H-pyrrolo[1,2-c]imidazole-3(5H)-thione] has a Papp A→B at 30 min, 50 μM (in vitro) of 126 ×10⁻⁶ cm/s, a remaining activity at 0.1 µM (DβH; [1]) of 89.3% and a remaining activity at 1 µM (DβH; [2]) of 36.6%. It also gave a remaining activity at 10 µM (DβH; SK-N-SH cell homogenate) of 6.8%.
In the case of `CC1(c2ccccc2)CCN(C(N)=S)C1` (stereo not drawn) [Example 7, 3-methyl-3-phenylpyrrolidine-1-carbothioamide], the Papp A→B at 30 min, 50 μM (in vitro) is reported as 100 ×10⁻⁶ cm/s, the remaining activity at 0.1 µM (DβH; [1]) is reported as 84.8% and the remaining activity at 1 µM (DβH; [2]) is reported as 37.7%. For the same compound, the remaining activity at 10 µM (DβH; SK-N-SH cell homogenate) was 7.5%.
`NC(=S)N1CCC(c2ccccc2)C1` (stereo not drawn) [Example 1, 3-Phenylpyrrolidine-1-carbothioamide] gave a Papp A→B at 30 min, 50 μM (in vitro) of 63.1 ×10⁻⁶ cm/s, a remaining activity at 0.1 µM (DβH; [1]) of 75.6% and a remaining activity at 1 µM (DβH; [2]) of 42.4%. For the same compound, the remaining activity at 10 µM (DβH; SK-N-SH cell homogenate) was 4%.
`NC(=S)N1CC2CC2(c2cc(F)cc(F)c2)C1` (stereo not drawn) [Example 34, 1-(3,5-difluorophenyl)-3-azabicyclo[3.1.0]hexane-3-carbothioamide] showed a Papp A→B at 30 min, 50 μM (in vitro) of 63.1 ×10⁻⁶ cm/s, a remaining activity at 0.1 µM (DβH; [1]) of 12.3% and a remaining activity at 1 µM (DβH; [2]) of 0%.
In the case of `CNC(=S)N1CCC(c2cc(F)cc(F)c2)C1` (stereo not drawn) [Example 32, 3-(3,5-difluorophenyl)-N-methylpyrrolidine-1-carbothioamide], the Papp A→B at 30 min, 50 μM (in vitro) is reported as 100 ×10⁻⁶ cm/s, the remaining activity at 0.1 µM (DβH; [1]) is reported as 57.3% and the remaining activity at 1 µM (DβH; [2]) is reported as 4.7%.
With `Cc1ccc(C2CCN(C(N)=S)C2)s1` (stereo not drawn) [Example 10, 3-(5-methylthiophen-2-yl)pyrrolidine-1-carbothioamide] the Papp A→B at 30 min, 50 μM (in vitro) was 126 ×10⁻⁶ cm/s, the remaining activity at 0.1 µM (DβH; [1]) was 54.9% and the remaining activity at 1 µM (DβH; [2]) was 2.7%. For the same compound, the remaining activity at 10 µM (DβH; SK-N-SH cell homogenate) was 0%.
`CNC(=S)N1CC(c2cc(F)cc(F)c2)CC1=O` (stereo not drawn) [Example 42, 4-(3,5-difluorophenyl)-N-methyl-2-oxopyrrolidine-1-carbothioamide] gave a Papp A→B at 30 min, 50 μM (in vitro) of 100 ×10⁻⁶ cm/s and a remaining activity at 1 µM (DβH; [2]) of 44.1%.
`NC(=S)N1CC2CC2(c2cc(F)ccc2F)C1` (stereo not drawn) [Example 38, 1-(2,5-difluorophenyl)-3-azabicyclo[3.1.0]hexane-3-carbothioamide] showed a Papp A→B at 30 min, 50 μM (in vitro) of 79.4 ×10⁻⁶ cm/s, a remaining activity at 0.1 µM (DβH; [1]) of 3.3% and a remaining activity at 1 µM (DβH; [2]) of 0%.
`Fc1ccc(F)c(C2Cc3c[nH]c(=S)n3C2)c1` (stereo not drawn) [Example 52, 6-(2,5-difluorophenyl)-6,7-dihydro-2H-pyrrolo[1,2-c]imidazole-3(5H)-thione] gave a Papp A→B at 30 min, 50 μM (in vitro) of 100 ×10⁻⁶ cm/s and a remaining activity at 1 µM (DβH; [2]) of 27.3%.
In the case of `NC(=S)N1CC[C@H](c2cc(F)cc(F)c2)C1` [Example 26, (R)-3-(3,5-difluorophenyl)pyrrolidine-1-carbothioamide], the Papp A→B at 30 min, 50 μM (in vitro) is reported as 100 ×10⁻⁶ cm/s and the remaining activity at 1 µM (DβH; [2]) is reported as 21.4%.
Compound `CNC(=S)N1CCC(c2ccccc2)C1` (stereo not drawn) [Example 31, N-methyl-3-phenylpyrrolidine-1-carbothioamide] has a Papp A→B at 30 min, 50 μM (in vitro) of 79.4 ×10⁻⁶ cm/s and a remaining activity at 10 µM (DβH; SK-N-SH cell homogenate) of 15.8%.
For `CNC(=S)N1C[C@@H]2C[C@]2(c2cc(F)cc(F)c2)C1` [Example 30, (1S,5R)-1-(3,5-Difluorophenyl)-N-methyl-3-azabicyclo[3.1.0]hexane-3-carbothioamide], the Papp A→B at 30 min, 50 μM (in vitro) was 126 ×10⁻⁶ cm/s, the remaining activity at 0.1 µM (DβH; [1]) was 3.3% and the remaining activity at 1 µM (DβH; [2]) was 2.8%.
`NC(=S)N1CCC(C2CCCCC2)C1` (stereo not drawn) [Example 9, 3-cyclohexylpyrrolidine-1-carbothioamide] gave a Papp A→B at 30 min, 50 μM (in vitro) of 251 ×10⁻⁶ cm/s, a remaining activity at 1 µM (DβH; [2]) of 30.9% and a remaining activity at 10 µM (DβH; SK-N-SH cell homogenate) of 5.3%.
With `NC(=S)N1CCC(c2cccs2)C1` (stereo not drawn) [Example 2, 3-(thiophen-2-yl)pyrrolidine-1-carbothioamide] the Papp A→B at 30 min, 50 μM (in vitro) was 126 ×10⁻⁶ cm/s, the remaining activity at 0.1 µM (DβH; [1]) was 54.9% and the remaining activity at 10 µM (DβH; SK-N-SH cell homogenate) was 0%.
`NC(=S)N1CCC(c2cc(F)cc(F)c2F)C1` (stereo not drawn) [Example 24, 3-(2,3,5-trifluorophenyl)pyrrolidine-1-carbothioamide] gave a Papp A→B at 30 min, 50 μM (in vitro) of 100 ×10⁻⁶ cm/s, a remaining activity at 0.1 µM (DβH; [1]) of 40.2% and a remaining activity at 1 µM (DβH; [2]) of 15.9%.
With `NC(=S)N1CCC(c2c(F)c(F)cc(F)c2F)C1` (stereo not drawn) [Example 23, 3-(2,3,5,6-Tetrafluorophenyl)pyrrolidine-1-carbothioamide] the Papp A→B at 30 min, 50 μM (in vitro) was 100 ×10⁻⁶ cm/s, the remaining activity at 0.1 µM (DβH; [1]) was 5.9% and the remaining activity at 1 µM (DβH; [2]) was 0%.
`CC(C)NCC(O)COc1cccc2ccccc12` (stereo not drawn) [Propranolol, reference compound] gave a Papp A→B at 30 min, 50 μM (in vitro) of 63.1 ×10⁻⁶ cm/s.
`CCCCc1[nH]c(=S)n2c1C[C@@H](c1cc(F)cc(F)c1)C2` [Example 80, (S)-1-butyl-6-(3,5-difluorophenyl)-6,7-dihydro-2H-pyrrolo[1,2-c]imidazole-3(5H)-thione] gave a remaining activity at 1 µM (DβH) of 56.7%.
With `Cc1[nH]c(=S)n2c1C[C@@H](c1c(F)ccc(Cl)c1F)C2` [Example 105, (S)-6-(3-chloro-2,6-difluorophenyl)-1-methyl-2,5,6,7-tetrahydro-3H-pyrrolo[1,2-c]imidazole-3-thione] the remaining activity at 0.1 µM (DβH; [1]) was 17.4% and the remaining activity at 1 µM (DβH; [2]) was 0%.
Work on `Fc1cc(F)c([C@]23C[C@H]2c2c[nH]c(=S)n2C3)cc1F` [Example 72, (5aS,6aR)-5a-(2,4,5-trifluorophenyl)-5,5a,6,6a-tetrahydrocyclopropa[3,4]pyrrolo[1,2-c]imidazole-3 (2H)-thione] yielded a remaining activity at 1 µM (DβH; [2]) of 35%.
Compound `Fc1cc(F)c(F)c([C@H]2CC3CNC(=S)N3C2)c1F` (stereo partly drawn) [Example 111, (6R)-6-(2,3,5,6-tetrafluorophenyl)tetrahydro-1H-pyrrolo[1,2-c]imidazole-3(2H)-thione] has a remaining activity at 1 µM (DβH; [2]) of 48.3%.
`NC(=S)N1CC[C@@H](c2ccccc2)C1` [Example 6, (S)-3-phenylpyrrolidine-1-carbothioamide] gave a remaining activity at 0.1 µM (DβH; [1]) of 97.6%, a remaining activity at 1 µM (DβH; [2]) of 50.3% and a remaining activity at 10 µM (DβH; SK-N-SH cell homogenate) of 3.3%.
In the case of `Fc1ccc(Br)c(F)c1[C@]12C[C@H]1c1c[nH]c(=S)n1C2` [Example 115, (5aS,6aR)-5a-(3-bromo-2,6-difluorophenyl)-5,5a,6,6a-tetrahydrocyclopropa[3,4]pyrrolo[1,2-c]imidazole-3 (2H)-thione], the remaining activity at 0.1 µM (DβH; [1]) is reported as 0.5% and the remaining activity at 1 µM (DβH; [2]) is reported as 0%.
`Cc1[nH]c(=S)n2c1[C@@H]1C[C@]1(c1cc(Cl)ccc1F)C2` [Example 99, (5aS,6aR)-5a-(5-chloro-2-fluorophenyl)-1-methyl-5,5a,6,6a-tetrahydrocyclopropa[3,4]pyrrolo[1,2-c]imidazole-3 (2H)-thione] gave a remaining activity at 0.1 µM (DβH; [1]) of 31.6% and a remaining activity at 1 µM (DβH; [2]) of 1%.
For `Fc1cc(Br)cc([C@]23C[C@H]2c2c[nH]c(=S)n2C3)c1` [Example 94, (5aS,6aR)-5a-(3-bromo-5-fluorophenyl)-5,5a,6,6a-tetrahydrocyclopropa[3,4]pyrrolo[1,2-c]imidazole-3 (2H)-thione], the remaining activity at 0.1 µM (DβH; [1]) was 18.1% and the remaining activity at 1 µM (DβH; [2]) was 0%.
With `Cn1cc2n(c1=S)C[C@@]1(c3cc(Cl)ccc3F)C[C@@H]21` [Example 116, (5aS,6aR)-5a-(5-chloro-2-fluorophenyl)-2-methyl-5,5a,6,6a-tetrahydrocyclopropa[3,4]pyrrolo[1,2-c]imidazole-3 (2H)-thione] the remaining activity at 0.1 µM (DβH; [1]) was 24.8% and the remaining activity at 1 µM (DβH; [2]) was 0%.
With `NC(=S)N1C[C@@H]2C[C@]2(c2cc(F)cc(F)c2)C1` [Example 36, (1S,5R)-1-(3,5-difluorophenyl)-3-azabicyclo[3.1.0]hexane-3-carbothioamide] the remaining activity at 0.1 µM (DβH; [1]) was 4% and the remaining activity at 1 µM (DβH; [2]) was 0%.
